Assay [1] relates to primary rat hepatocytes (PRH). The assay can be described thus: Western blot in primary rat hepatocytes (Example 4). It counts as cell-based. The following applies: Ad-Control-infected group, T0901317 1.5 μM or 25HC 3 μM. How it is done: PRH were prepared as previously described (24). Briefly, parenchymal cells (3.5×10^6) were inoculated in 60-mm plastic Petri dishes coated with rat tail collagen. The plates contained 3 ml of Williams E culture media supplemented with thyroxine (1 μM), dexamethasone (0.1 μM), and penicillin (100 units/ml). Three hours after plating, culture medium was removed and fresh medium was added. Cells were then infected with Ad-SULT2B1b at a multiplicity (MOI) of 10 plaque forming units/cell (pfu/cell) or 100 nM of siRNA-SULT2B1b (ON-TARGET plus siRNA of rat SULT2B1b, Thermo Scientific Dharmacon, Lafayette, Colo.) as previously described (31). The Ad-Control and siRNA-Control (ON-TARGET plus negative control siRNA) were used as controls, respectively. Twenty four hours after infection, cells were treated with T0901317 (1.5 μM) or 25HC (3 μM) for another 24 hours. The cells were harvested at the timepoints as indicated in the text.
Cell lysates were prepared from frozen mouse liver tissues or PRH, and 50 μg of the total proteins were separated by 10% SDS-PAGE, transferred to polyvinylidene difluoride membrane (Millipore, Eschbom, Germany). Specific protein was probed with specific antibodies against PCNA, human SULT2B1b (Santa Cruz Biotechnology, Santa Cruz, Calif.), LXRα (Abcam, Cambridge, Mass.), ATP-binding cassette transporters 1 (ABCA1) (Abcam, Cambridge, Mass.), and SREBP1 (Santa Cruz Biotechnology, Santa Cruz, Calif.). β-Actin (Sigma-Aldrich, St. Louis, Mo.) was used as a loading control. Western analysis was performed by methods known in the art.
For orientation: A western blot detects proteins with antibodies after separation by electrophoresis.

A further assay relates to LXR signaling pathway. The assay can be described thus: Western blot of LXR and its target genes and PCNA in mouse liver (Example 3). The following applies: 5 mg/kg i.v. In kind it is in vivo, C57BL/6 mice. The protocol:
Cayman Chemical, Ann Arbor, Mich.); […] […] Metabolism. (Accepted)]. […] Cell lysates were prepared from frozen mouse liver tissues. Total proteins, 100 μg, were separated by 10% SDS-PAGE, and transferred to PVDF membrane (Millipore, Eschbom, Germany). […] Louis, Mo.) was used as a loading control. The immunoreactive bands were detected by Fujifilm Medical System (Fujifilm, Stamford, Conn.) and quantified by Advanced Image Data Analyzer (Aida Inc., Straubenhardt, Germany).

In the case of `O=S(=O)(c1ccccc1)N(CC(F)(F)F)c1ccc(C(O)(C(F)(F)F)C(F)(F)F)cc1` [T0901317, reference compound], in assay [1], the “LXR response gene expressions” value is recorded as “significantly increased” and the PCNA expression result is reported as “decreased”. Moreover, in the assay with LXR signaling pathway (day 2), the “25HC3S-induced PCNA expression” value is given as “significantly repressed”. Moreover, the “expressions of LXR target genes ABCA1 and SREBP-1c” value with LXR signaling pathway (day 2, presence and absence of 25HC3S, vs vehicle) is listed as “induced”.

The record behind these values is patent US9034859B2, “Sulfated oxysterol and oxysterol sulfation by hydroxysterol sulfotransferase promote lipid homeostasis and liver proliferation” (Virginia Commonwealth University, priority 2011, dated 2015).
